Our source for the EC50, IC50 and outcome values is PubChem BioAssay AID179 (DTP/NCI, 2004).

The source made the active and inactive calls.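 The calls were made as follows: active = compounds giving half or more protection of infected cells from virus-caused growth loss, again on retest; inactive = the rest.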 Where a SMILES comes first, the peptide text is derived from it. [ ]: non-standard residue; d: D form. The star is where a group is joined. Ac5c = NC1(C(=O)O)CCCC1; Boc = CC(C)(C)OC(=O)*; tBu = CC(C)(C)*

This test deals with CEM cells HIV-1 protection, formazan growth assay. In words: NCI AIDS Antiviral Assay. Particulars: for IC50: measured here: growth of uninfected CEM cells. In short, it runs like this: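 Human CEM cells, uninfected and HIV-1-infected, exposed to five drug concentrations; growth measured by soluble formazan assay and scored as percent protection from infection, with protecting compounds retested.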

As for `CC(OC(C)(C)C)C(NC(=O)C(CCCCNC(=O)OC(C)(C)C)NC(=O)C(Cc1c[nH]c2ccccc12)NC(=O)C(N)Cc1ccccc1)C(=O)NC(Cc1ccccc1)C(=O)NC1(C(=O)O)CCCC1` (configuration not stated) (H-FWK(Boc)T(tBu)F[Ac5c]-OH; configuration not given here), the EC50 – broadly, the concentration at which the effect is half-maximal – was 97.7 µM and the IC50 – broadly, the concentration at which inhibition is half-maximal – is above 100 µM.
With `Clc1cccc(NC2=NCCN=C(Nc3cccc(Cl)c3Cl)SS2)c1Cl`, the EC50 was above 200 µM and the IC50 was determined as 21.4 µM.
In the same order, the values of `O=C1c2ccccc2-c2nnc(-c3ccc([N+](=O)[O-])cc3)cc21` are above 100 µM and above 100 µM.
For the compound `O=C(Nc1ccccc1)c1cc(S(=O)(=O)Nc2nc3ncccc3[nH]2)c(SSc2cc(Cl)c(C(=O)Nc3ccccc3)cc2S(=O)(=O)Nc2nc3ncccc3[nH]2)cc1Cl`, the EC50 was 112 µM and the IC50 is above 200 µM.
The matching figures for `CCOC(=O)C1=C(C)NC(C)=C(C(=O)OCCNC(=O)c2ccc(N=[N+]=[N-])cc2)C1c1ccccc1C(F)(F)F` (configuration not stated): above 200 µM and 10.5 µM.
Regarding `C=CCCCCOC1C=CC(OC(C)=O)C(COC(C)=O)O1` (configuration not stated), the EC50 is above 200 µM and the IC50 is above 200 µM.
Regarding `COc1ccc(C(=O)C(C(=O)CC(=O)Nc2cccc(C(F)(F)F)c2)c2ccc(OC)cc2)cc1` (configuration not stated), the EC50 was above 14.8 µM and the IC50 was above 14.8 µM.
For `COc1ccc(N=C(Nc2ccc(OC)cc2)C(=Nc2ccc(OC)cc2)Nc2ccc(OC)cc2)cc1`, the EC50 was above 200 µM and the IC50 was 28.2 µM.
For `CC(NCCNC(C)C(=O)O)C(=O)O` (configuration not stated), the EC50 is above 676 µM and the IC50 is above 676 µM.
Turning to `N#C/C(=C1\SCC(=O)N1c1ccccc1)c1nc2ccccc2[nH]1`, the EC50 is above 4.37 µM and the IC50 was above 4.37 µM.
With `S=C1Nc2cnc3ccccc3c2SC1c1ccccc1` (configuration not stated), the EC50 was above 200 µM and the IC50 came to 56.2 µM.
`CNS(=O)(=O)c1ccccc1C(C)(O)c1ccccc1` (configuration not stated): the EC50 is above 200 µM and the IC50 is above 200 µM.
Take `CN(C)CCCCC1CCN(CC(=O)N2c3ccccc3NC(=O)c3ccccc32)CC1`: the EC50 is above 302 µM and the IC50 was 155 µM.
The matching figures for `Cn1c(O)c(/C=N/c2ncccn2)c(=O)[nH]c1=O`: above 200 µM and above 200 µM.
In the same order, the values of `Cc1cn(CC(=O)NCCCCO)c(=O)[nH]c1=O` are above 200 µM and above 200 µM.
For `CCOC(=O)C(Cl)(NC(=O)c1c(F)c(F)c(F)c(F)c1F)C(F)(F)F` (configuration not stated), the outcome was inactive.
For the compound `CC(=O)CCn1c(=S)sc2ccccc21`, the EC50 is above 200 µM and the IC50 came out at 93.3 µM.
Regarding `O=c1cc(NCCCCCO)[nH]c(=O)[nH]1`, the EC50 is above 200 µM and the IC50 was above 200 µM.
Consider `COP(=O)(OC)C1c2ccccc2-c2cccc(C(=O)O)c21` (configuration not stated), for which the EC50 is above 200 µM and the IC50 was above 200 µM.
`CCOC(=O)CCn1[nH]c(=O)c(Cl)c(Cl)c1=O`: the outcome was inactive.
Take `O=C(O)Cc1cccc2c1OC(c1ccccc1)C(Cl)(C(=O)c1ccccc1)C2=O` (configuration not stated): the EC50 is above 200 µM and the IC50 came out at 5.5 µM.
Regarding `CCCCCCCCCCCCCCCCOC(=O)C(C(=O)OCCCCCCCCCCCCCCCC)[N+](C)(C)CCOC(C)=O`, the outcome was inactive.
`C/C(Cl)=N\OC(=O)Nc1ccc([N+](=O)[O-])cc1`: the EC50 was above 200 µM and the IC50 was 10.5 µM.
For `COc1cc(C(=O)N(C(=O)N2CCCCC2)c2ccccc2)cc(OC)c1OC`, the EC50 was above 200 µM and the IC50 was above 200 µM.
Consider `OCCN(CCO)CCn1cnc2c(NCc3ccccc3)ncnc21`, for which the EC50 was above 200 µM and the IC50 was above 200 µM.
Consider `Cc1ccc(S(=O)(=O)N/N=C2/CCC(C(C)(C)C)CC2Br)cc1` (configuration not stated), for which the EC50 is above 200 µM and the IC50 was determined as 30.9 µM.
As to `S=C(N/N=C/c1ccccn1)Nc1ccc(Cl)cc1`, the EC50 is above 2 µM and the IC50 was determined as 0.0891 µM.
On to `CCc1ccc(/C(C#N)=C/c2ccc(OC)cc2)cc1`, for which the EC50 is above 200 µM and the IC50 was 3.98 µM.
The matching figures for `COc1cc2oc(=O)cc(C)c2c(OC)c1OC(C)=O`: above 200 µM and above 200 µM.
Consider `COC(=O)C(Nc1ccc(OC)cc1)c1ccccc1` (configuration not stated), for which the EC50 was above 200 µM and the IC50 worked out at 148 µM.
In the case of `O=c1c2ccccc2oc2nc3cc(Cl)ccc3n12`, the EC50 was above 200 µM and the IC50 was above 200 µM.
Take `CCc1nc(N)c2nc(-c3cccs3)oc2n1`: the EC50 was above 200 µM and the IC50 turned out to be 182 µM.
Turning to `CCC1(O)CC2CC(=O)OC2C1O` (configuration not stated), the EC50 was above 200 µM and the IC50 is above 200 µM.
In the case of `O=Cc1cc2sc(C=O)cc2s1`, the outcome was inactive.
For the compound `CCNCCCCNCCCCNCCCCNCCCCNCC`, the EC50 is above 2190 µM and the IC50 is 12.3 µM.
On to `Cn1c2ccccc2c2cc(N3CCCC3)c3c(c21)C(=O)N(c1ccccc1)C3=O`, for which the EC50 was above 200 µM and the IC50 is above 200 µM.
As for `[Ni+2].[O-]/C(=N\N=C/c1cccc(F)c1)c1ccncc1.[O-]/C(=N\N=C\c1cccc(F)c1)c1ccncc1`, the EC50 is above 100 µM and the IC50 came to 38 µM.
In the same order, the values of `Cc1nc(C)c2c(n1)Oc1ccc3ccccc3c1C2` are above 49 µM and above 49 µM.
In the same order, the values of `CC1=CCN(c2ccccn2)OC1c1ccccc1` (configuration not stated) are above 74.1 µM and above 74.1 µM.
Turning to `Cc1nc2c(ccc3ncccc32)[nH]1`, the result was inactive.
For `CC(C)=CCC/C(C)=C/CCC(C)/C=C/C(=O)NC[C@@H]1CC[N@+]2(C)CCCC[C@H]12` (some centres not stated), the EC50 is above 501 µM and the IC50 was 23.4 µM.
For `CC1CCC2(CCN(CCCN(C)C)CC2)C1` (configuration not stated), the outcome was inactive.
As for `N#C/C(=C\c1cc(O)c(O)c(O)c1)C(=O)NCCCCNC(=O)/C(C#N)=C/c1cc(O)c(O)c(O)c1`, the EC50 is above 200 µM and the IC50 is 61.7 µM.
Consider `CCc1cc(=O)n(/C(C)=C/c2ccccc2)n1C`, for which the EC50 was above 200 µM and the IC50 was above 200 µM.
Take `CCCc1cc(=O)oc2c3c(c4c(c12)OC(C)(C)[C@H](OC(=O)c1ccc(Br)cc1)[C@@H]4OC(=O)c1ccc(Br)cc1)O[C@@H](C)[C@H](C)[C@@H]3OC(=O)c1ccc(Br)cc1`: the EC50 was above 200 µM and the IC50 is above 200 µM.
Regarding `COc1ccc(CCN(C)CCC[C@](C#N)(c2ccc(OC)c(OC)c2)C(C)C)cc1OC`, the EC50 was above 200 µM and the IC50 worked out at 38.9 µM.
With `CCOC(=O)CSC1NC(C(=O)OC)CC1OC` (configuration not stated), the EC50 is above 200 µM and the IC50 is above 200 µM.
For `O=C1c2ccccc2C(=O)C1c1ccc2c(ccc3ccccc32)n1`, the outcome was inactive.
In the case of `CC(=O)OC(C)(C)CCC(=O)[C@](C)(O)[C@H]1[C@H](O)C[C@@]2(C)[C@@H]3CC=C4C(C)=C(OC5OC(CO)C(O)C(O)C5O)C(=O)C[C@@H]4[C@]3(C)C(=O)C[C@]12C` (some centres not stated), the EC50 was above 200 µM and the IC50 is above 200 µM.
Regarding `N=c1oc2c(O)c(O)ccc2cc1C(N)=O`, the EC50 was above 8.32 µM and the IC50 was above 8.32 µM.
In the case of `NNC(=Nc1ccccc1)SCc1ccccc1`, the outcome was inactive.
For `Nn1c(NNC(=O)C(=O)Nc2cc(Cl)c(Cl)cc2Cl)n[nH]c1=S`, the EC50 was above 123 µM and the IC50 is above 123 µM.
As for `CCSC(CCC(NC(C)=O)(C(=O)O)C(=O)O)SCC`, the EC50 was above 200 µM and the half-maximal inhibitory concentration (IC50) was above 200 µM.
`Cn1c(=O)c2nc3sc4c(n3c2n(C)c1=O)C(=O)c1ccccc1C4=O`: the EC50 is above 14.1 µM and the half-inhibitory concentration (IC50) is above 14.1 µM.
For `CCOC(=O)N(C)C(=C(F)F)C(F)(F)F`, the EC50 is above 200 µM and the IC50 was above 200 µM.
As to `COc1cccc(/C=C/c2cnc3ccccc3n2)c1OC`, the EC50 was above 200 µM and the IC50 came out at 151 µM.
With `N#Cc1c2c(c(Nc3ccc(Cl)cc3)n3c1nc1ccccc13)CCCC2`, the EC50 was above 200 µM and the IC50 was found to be 11.5 µM.
In the case of `CC1(n2nc(-c3ccccc3)n(-c3ccccc3)c2=O)CSC1`, the EC50 is above 41.7 µM and the IC50 was above 41.7 µM.
With `Oc1ccc(Cl)cc1C(c1cc(Cl)ccc1O)C(Cl)(Cl)Cl`, the EC50 is 9.77 µM and the IC50 came out at 16.6 µM.
With `CC(C(=O)O)C(C)(C)C(=O)O` (configuration not stated), the EC50 is above 200 µM and the IC50 is above 200 µM.
As for `COc1cc(C(C)c2cc3c(cc2OCCO)OCO3)cc(OC)c1OC` (configuration not stated), the EC50 was above 347 µM and the IC50 stood at 0.447 µM.
On to `O=C1c2cccc3cccc(c23)C(=O)N1CCO`, for which the EC50 is above 200 µM and the IC50 came out at 13.8 µM.
Consider `COc1ccc(C)cc1C(=C=C=C=C(c1cc(C)ccc1OC)c1ccccc1OCc1ccccc1)c1ccccc1OCc1ccccc1`, for which the EC50 was above 44.7 µM and the IC50 was determined as 36.3 µM.
On to `Clc1ccc(CCN2CCOCC2)c(Cl)c1`, for which the EC50 was above 63.1 µM and the IC50 is above 63.1 µM.
On to `CCOC1=C(c2ccccc2)N2CCCCC2O1` (configuration not stated), for which the EC50 is above 200 µM and the half-inhibitory concentration (IC50) came to 2.57 µM.
Regarding `Cc1ncc(CC#N)c2c1OC(C)(C)OC2`, the EC50 was above 1150 µM and the IC50 is above 1150 µM.
Turning to `CC1(C)CC2C(C1=O)C1(C)CCCC2(C)C1=O` (configuration not stated), the EC50 is above 200 µM and the IC50 was above 200 µM.
Take `CC1(O)/C(=N/O)CC2CC1C2(C)C` (configuration not stated): the EC50 was above 1350 µM and the IC50 is above 1350 µM.
Take `Clc1cccc(-c2ccc[nH]2)c1`: the EC50 was above 200 µM and the IC50 is above 200 µM.
For `Clc1nn2nnnc2c2ccccc12`, the EC50 was above 66.1 µM and the IC50 came out at 1.23 µM.
As to `S=C(N/N=C/c1ccccn1)N1CCCCC1`, the EC50 was above 0.2 µM and the IC50 turned out to be 0.011 µM.
For the compound `CC1=C/C(=C(\c2ccc(N(C)C)cc2)c2ccc([N+](C)(C)C)cc2)C=CC1=[N+](C)C`, the result was inactive.
As for `C[N+]1(C)N=C(c2ccccc2)C=C1[O-]`, the EC50 is above 200 µM and the IC50 is above 200 µM.
